Consider 23 compounds from patent publication US5250527A, “Pyridyl containing benzimidazoles, compositions and use” (SmithKline & French Laboratories Limited, priority 1988, dated 1993).

One assay deals with T1, H^+ -K^+ -ATPase (Sus scrofa, UniProt P19156).
T1 construct: alpha-beta complex
The assay is described as follows: K+ stimulated ATPase activity. It counts as biochemical. The following applies: at pH 6.1 and 7.4; lyophilised gastric vesicles of pig fundic mucosa. As for the experimental part: The effects of a single high concentration (1 mM) of a compound of structure (I) on H^+ -K^+ ATPase were determined at pH 6.1 and pH 7.4.
Compounds of structure (I) were pre-incubated with H^+ -K^+ -ATPase preparation 30 μg protein/ml from (i) in 10 mM Pipes/Tris buffer pH 6.1 and pH 7.4.
After 30 min at 37° the preincubation was diluted 5-fold with assay buffer to start the ATPase reaction. The conditions in the assay are 100 mM Pipes/Tris, 2 mM MgCl2, 10 mM KCl, 5 μgml nigericin, 2 mM Na2 ATP, pH 7.0.
The effect of the same concentration of compound of structure (I) (preincubated with H^+ -K^+ -ATPase preparation at pH 7.4 as described above) on the recovery of 100 nmole of inorganic phosphate was also determined.
Compounds of structure (I) were initially dissolved in dimethyl sulphoxide, polyethylene glycol (Type 400) or Pipes/Tris buffer.
All data refer to the concentration of compound present in the preincubation before dilution with assay buffer.

In assay [1] the test system is Histamine Stimulated Gastric Acid Secretion. The assay is described as follows: Rat: Lumen Perfumed Stomach (Histamine Stimulated Gastric Acid Secretion). The assay is classed as in vivo. The following applies: i.v. From the text:
C. Rat: Lumen Perfumed Stomach (Histamine Stimulated Gastric Acid Secretion)
Using a modification of the procedure described by Ghosh and Schild (Br. J. Pharmacology, 13, 54, 1958), ED50 values after either intraduodenal (i.d) or intravenous (i.v) administration were obtained as follows: […]

Assay [2] concerns rabbit intact gastric glands. The assay is described as follows: Aminopyrine (AP) accumulation in intact gastric glands. The assay is classed as cell-based, New Zealand white rabbits. The following applies: Oryctolagus cuniculus, 0.5 h, inhibition of aminopyrine accumulation, dibutyryl cAMP stimulated, pH 7.4, 30 min. As for the experimental part: The effect of a single concentration (100 μm) of a compound of structure (I) on dibutyryl cAMP stimulated AP […] in rabbit intact gastric glands was determined. Preferred compounds of structure (I) were tested over a range of concentrations to determine the IC50 value.
Intact gastric glands were prepared from New Zealand white rabbits by the method of Berghindh et al. (Acta. Physio. Scand. 96, 150, 1976). Gastric mucosal scrapings were digested at 37° C. for 45-60 min. with Collagenase (100 U. Type 1. Sigma), and glands harvested by coarse filtration and sedimentation.
Test compound was incubated with glands and 300 μM dibutyryl CAMP for 30 minutes at […]. Incubating medium contained 132.5 mM NaCl, 5.4 Mm KCl, 1.0 mM NaH2 PO4. 5.0 mM Na2 HPO4, 1.2 mM MgSO4, 1.0 mM CaCl2, 11.1 mM glucose, 2.0 mg/ml rabbit albumin, 10 μg/ml phenol red, approximately 0.3 μM[^14 C] aminopyrine (110 mCi/mmole), pH 7.4.
After incubation, glands were centrifuged and the supernatant removed. The glands were dried, weighed and dissolved in NaOH. The distribution of radioactivity between the supernatant and glands is then used to calculate the AP ratio after the method of Berglindh et al. (Acta. Physiol. Scand. 97, 401, 1976).
The IC50 value is the amount of compound required to inhibit the […] accumulation of aminopyrine by 50%.

For assay [3], the system named is Histamine-Stimulated Gastric Acid Secretion. Put plainly: Dog: Conscious Heidenhain Pouch (Histamine-Stimulated Gastric Acid Secretion). The assay is classed as in vivo. Conditions: Canis lupus familiaris, intravenous. The source says:
B. Dog: Conscious Heidenhain Pouch (Histamine-Stimulated Gastric Acid Secretion)
Using dogs surgically prepared with Heidenhain pouches 1 to 3 years previously, inhibitory ED50 values against histamine stimulated gastric acid secretion after intravenous administration were obtained.

T1 sequence (P19156 whole entry): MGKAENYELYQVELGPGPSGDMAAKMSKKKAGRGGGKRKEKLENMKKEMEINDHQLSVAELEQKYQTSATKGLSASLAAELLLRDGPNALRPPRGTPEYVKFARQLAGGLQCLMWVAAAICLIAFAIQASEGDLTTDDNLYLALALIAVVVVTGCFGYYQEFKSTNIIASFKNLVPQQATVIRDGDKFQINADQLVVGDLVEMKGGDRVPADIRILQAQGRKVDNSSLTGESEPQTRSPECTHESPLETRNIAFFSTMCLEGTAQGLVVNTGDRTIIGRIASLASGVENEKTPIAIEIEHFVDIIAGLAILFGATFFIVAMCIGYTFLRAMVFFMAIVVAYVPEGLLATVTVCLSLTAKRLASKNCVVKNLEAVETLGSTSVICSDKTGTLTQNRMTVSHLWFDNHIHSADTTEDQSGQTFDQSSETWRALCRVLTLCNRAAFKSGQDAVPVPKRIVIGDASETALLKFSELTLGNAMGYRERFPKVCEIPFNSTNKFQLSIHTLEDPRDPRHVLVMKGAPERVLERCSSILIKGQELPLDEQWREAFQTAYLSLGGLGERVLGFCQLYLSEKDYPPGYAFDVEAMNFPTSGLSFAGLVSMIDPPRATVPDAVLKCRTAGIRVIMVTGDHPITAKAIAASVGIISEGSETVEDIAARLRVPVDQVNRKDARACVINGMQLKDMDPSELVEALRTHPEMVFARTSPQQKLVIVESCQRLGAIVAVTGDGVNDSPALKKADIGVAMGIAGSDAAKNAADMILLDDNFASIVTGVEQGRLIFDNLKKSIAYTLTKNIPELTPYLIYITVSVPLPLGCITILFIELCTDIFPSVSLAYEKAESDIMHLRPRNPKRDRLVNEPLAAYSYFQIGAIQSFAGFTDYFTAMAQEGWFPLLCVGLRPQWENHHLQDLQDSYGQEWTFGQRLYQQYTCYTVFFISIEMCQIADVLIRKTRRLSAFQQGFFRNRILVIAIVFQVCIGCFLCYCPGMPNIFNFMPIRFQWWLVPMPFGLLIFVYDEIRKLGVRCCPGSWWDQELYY
T1 sequence (P18434 whole entry partner): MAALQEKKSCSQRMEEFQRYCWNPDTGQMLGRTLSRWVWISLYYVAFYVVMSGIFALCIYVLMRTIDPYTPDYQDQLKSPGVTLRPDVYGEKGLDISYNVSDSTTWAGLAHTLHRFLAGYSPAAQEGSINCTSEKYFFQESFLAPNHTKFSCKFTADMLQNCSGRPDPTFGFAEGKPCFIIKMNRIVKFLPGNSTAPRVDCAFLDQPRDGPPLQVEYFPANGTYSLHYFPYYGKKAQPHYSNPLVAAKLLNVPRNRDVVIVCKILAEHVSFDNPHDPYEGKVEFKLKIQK

`COc1ccc2[nH]c([S+]([O-])Cc3cc(N4CCCC4)c(Br)cn3)nc2c1` (stereo not drawn) [Example 26, 2-(4-pyrrolidino-5-bromo-2-pyridylmethylsulphinyl)-5-methoxy-(1H)-benzimidazole]: the “inhibition of potassium stimulated ATPase activity” value at H^+ -K^+ -ATPase was “found to inhibit potassium stimulated ATPase activity”.

One may read the % inhibition as the change of the read-out against control, counted positive when it falls. A higher % inhibition goes with a response far below the control. For the compound `COc1cc2nc([S+]([O-])Cc3nccc(N(C)C)c3F)[nH]c2cc1OC` (stereo not drawn) [Example 42, 2-(4-dimethylamino-3-fluoro-2-pyridylmethylsulphinyl)-5,6-dimethoxy-(1H)-benzimidazole], in assay [1], the “% inhibition at 1 μM/kg” value worked out at 46%.

In general, IC50 refers to the concentration needed to halve the response being measured. In the case of `COc1ccc2[nH]c([S+]([O-])Cc3ncc(C)c(N4CCCC4)c3Cl)nc2c1` (stereo not drawn) [Example 14, 2 -(4 -pyrrolidino-3 -chloro-5 -methyl-2 -pyridylmethylsulphinyl)-5 -methoxy-(1H)-benzimidazole], the IC50 in assay [2] was found to be 2.6 µM. For the same compound, the “inhibition of potassium stimulated ATPase activity” value at H^+ -K^+ -ATPase was “found to inhibit potassium stimulated ATPase activity”.

On to `COc1ccc2[nH]c([S+]([O-])Cc3nccc(N4CCCC4)c3Cl)nc2c1` (stereo not drawn) [Example 12, 2 -(4 -pyrrolidino-3 -chloro-2 -pyridylmethylsulphinyl)-5 -methoxy-(1H)-benzimidazole], for which the IC50 in assay [2] was in the range of 1 to 10 µM. Moreover, on H^+ -K^+ -ATPase, the “inhibition of potassium stimulated ATPase activity” value is listed as “found to inhibit potassium stimulated ATPase activity”.

By ED50 is commonly meant the midpoint of the dose-response relation. Turning to `COc1ccc2[nH]c([S+]([O-])Cc3ncc(C)c(N4CCOCC4)c3Cl)nc2c1` (stereo not drawn) [Example 6, 2 -(4 -morpholino-3 -chloro-5 -methyl-2 -pyridylmethylsulphinyl)-5 -methoxy-(1H)-benzimidazole], the IC50 in assay [2] turned out to be 16.3 µM. Besides, in assay [3], the ED50 turned out to be 2.2 µmol/kg. Besides, the “inhibition of potassium stimulated ATPase activity” value at H^+ -K^+ -ATPase was “found to inhibit potassium stimulated ATPase activity”.

The compound `COc1ccc2[nH]c([S+]([O-])Cc3ncc(C)c(N4CCCCC4)c3Cl)nc2c1` (stereo not drawn) [Example 8, 2 -(4 -piperidino-3 -chloro-5 -methyl-2 -pyridylmethylsulphinyl)-5 -methoxy-(1H)-benzimidazole] yielded an IC50 in assay [2] of 4.2 µM. The “inhibition of potassium stimulated ATPase activity” value against H^+ -K^+ -ATPase was “found to inhibit potassium stimulated ATPase activity”.

In turn, `Cc1cnc(C[S+]([O-])c2nc3cc(OC(F)(F)C(F)F)ccc3[nH]2)c(Cl)c1N1CCCCC1` (stereo not drawn) [Example 23, 2-(4-piperidino-3-chloro-5-methyl-2-pyridylmethylsulphinyl)-5-(1,1,2,2-tetrafluoroethoxy)-(1H)-benzimidazole] yielded an IC50 in assay [2] of 1.9 µM. In addition, on H^+ -K^+ -ATPase, the “inhibition of potassium stimulated ATPase activity” value was “found to inhibit potassium stimulated ATPase activity”.

With “2-(4-piperidino-3-chloro-5-methyl-2-pyridylmethylsulphinyl)-4, 5-difluoromethylenedioxy-(1H)-benzimidazole [Example 24]”, the “inhibition of potassium stimulated ATPase activity” value on H^+ -K^+ -ATPase is “found to inhibit potassium stimulated ATPase activity”.

`COc1ccc2[nH]c([S+]([O-])Cc3ncc(C)c(N(C)C)c3Cl)nc2c1` (stereo not drawn) [Example 16, 2 -(4 -dimethylamino-3 -chloro-5 -methyl-2 -pyridylmethylsulphinyl)-5 -methoxy-(1H)-benzimidazole] registered an IC50 in assay [2] of 3.7 µM. It took a dose of 0.29 µmol/kg to reach the 50% effect level in assay [3] (ED50). Also, the “inhibition of potassium stimulated ATPase activity” value on H^+ -K^+ -ATPase is listed as “found to inhibit potassium stimulated ATPase activity”.

In assay [2], `COc1ccc2[nH]c([S+]([O-])Cc3cc(N4CCCCC4)c(Br)cn3)nc2c1` (stereo not drawn) [Example 18, 2-(4-piperidino-5-bromo-2-pyridylmethylsulphinyl)-5-methoxy-(1H)-benzimidazole] yielded an IC50 of 1.6 µM. The “inhibition of potassium stimulated ATPase activity” value against H^+ -K^+ -ATPase was “found to inhibit potassium stimulated ATPase activity”.

For `COc1ccc2[nH]c([S+]([O-])Cc3nccc(N(C)C)c3F)nc2c1` (stereo not drawn) [Example 32, 2-(4-dimethylamino-3-fluoro-2-pyridylmethylsulphinyl)-5-methoxy-(1H)-benzimidazole], in assay [1], the “% inhibition at 1 μM/kg” value stood at 26%.

`COc1ccc2[nH]c([S+]([O-])Cc3nccc(N4CCOCC4)c3Cl)nc2c1` (stereo not drawn) [Example 4, 2 -(4 -morpholino-3 -chloro-2 -pyridylmethylsulphinyl)-5 -methoxy-(1H)-benzimidazole] gave an IC50 in assay [2] of 11 µM. Also, the ED50 in assay [3] was 1 µmol/kg. For the same compound, at H^+ -K^+ -ATPase, the “inhibition of potassium stimulated ATPase activity” value is recorded as “found to inhibit potassium stimulated ATPase activity”.

As to `COc1cc2[nH]c([S+]([O-])Cc3nccc(N4CCOCC4)c3F)nc2cc1C` (stereo not drawn) [Example 40, 2-(4-morpholino-3-fluoro-2-pyridylmethylsulphinyl)-5-methyl-6-methoxy-(1H)-benzimidazole], the 50% effect level in assay [3] (ED50) was put at a dose of 2.14 µmol/kg.

Regarding `COc1ccc2[nH]c([S+]([O-])Cc3ncc(F)c(N4CCOCC4)c3C)nc2c1` (stereo not drawn) [Example 36, 2-(4-morpholino-5-fluoro-3-methyl-2-pyridylmethylsulphinyl)-5-methoxy-(1H)-benzimidazole], the median effective dose (ED50) in assay [3] was found to be 2.05 µmol/kg.

The compound `COc1ccc2[nH]c([S+]([O-])Cc3nccc(N4CCCCC4)c3Br)nc2c1` (stereo not drawn) [Example 20, 2-(4-piperidino-3-bromo-2-pyridylmethylsulphinyl)-5-methoxy-(1H)-benzimidazole] had an IC50 in assay [2] of 1.3 µM. In addition, on H^+ -K^+ -ATPase, the “inhibition of potassium stimulated ATPase activity” value is “found to inhibit potassium stimulated ATPase activity”.

Turning to `COc1ccc2[nH]c([S+]([O-])Cc3cc(N4CCOCC4)c(F)cn3)nc2c1` (stereo not drawn) [Example 30, 2-(4-morpholino-5-fluoro-2-pyridylmethylsulphinyl)-5-methoxy-(1H)-benzimidazole], in assay [1], the “% inhibition at 1 μM/kg” value amounted to 51%. In assay [3], this compound showed an ED50 of 5.07 µmol/kg.

As to `COc1ccc2[nH]c([S+]([O-])Cc3cc(N(C)C)c(F)cn3)nc2c1` (stereo not drawn) [Example 34, 2-(4-dimethylamino-5-fluoro-2-pyridylmethylsulphinyl)-5-methoxy-(1H)-benzimidazole], the “% inhibition at 1 μM/kg” value in assay [1] is 37%.

`COc1ccc2[nH]c([S+]([O-])Cc3nccc(N4CCOCC4)c3F)nc2c1` (stereo not drawn) [Example 28, 2-(4-morpholino-3-fluoro-2-pyridylmethylsulphinyl)-5-methoxy-(1H)-benzimidazole] returned an ED50 in assay [3] of 2.75 µmol/kg.

In assay [2], `COc1ccc2[nH]c([S+]([O-])Cc3ncc(Br)c(N4CCCCC4)c3C)nc2c1` (stereo not drawn) [Example 22, 2-(4-piperidino-5-bromo-3-methyl-2-pyridylmethylsulphinyl) -5-methoxy-(1H)-benzimidazole] displayed an IC50 of 9.2 µM. Further, at H^+ -K^+ -ATPase, the “inhibition of potassium stimulated ATPase activity” value is given as “found to inhibit potassium stimulated ATPase activity”.

`COc1ccc2[nH]c([S+]([O-])Cc3cc(N)c(Br)cn3)nc2c1` (stereo not drawn) [Example 2, 2 -(4 -amino-5 -bromo-2 -pyridylmethylsulphinyl)-5 -methoxy-(1H)-benzimidazole]: half-maximal inhibition in assay [2] (IC50) was put at 6.6 µM. In assay [3], this compound came in with an ED50 of 2.94 µmol/kg. The “inhibition of potassium stimulated ATPase activity” value against H^+ -K^+ -ATPase was “found to inhibit potassium stimulated ATPase activity”.

Consider `COc1cc2nc([S+]([O-])Cc3nccc(N4CCOCC4)c3F)[nH]c2cc1OC` (stereo not drawn) [Example 38, 2-(4-morpholino-3-fluoro-2-pyridylmethylsulphinyl)-5,6-dimethoxy-(1H)-benzimidazole], for which the “% inhibition at 1 μM/kg” value in assay [1] is on record as 33%.

`COc1ccc2[nH]c([S+]([O-])Cc3cc(N(C)C)c(Br)cn3)nc2c1` (stereo not drawn) [Example 25, 2-(4-dimethylamino-5-bromo-2-pyridylmethylsulphinyl)-5-methoxy-(1H)-benzimidazole] gave an ED50 in assay [3] of 0.91 µmol/kg. Further, the “inhibition of potassium stimulated ATPase activity” value at H^+ -K^+ -ATPase is “found to inhibit potassium stimulated ATPase activity”.

Regarding `COc1ccc2[nH]c([S+]([O-])Cc3nccc(N4CCCCC4)c3Cl)nc2c1` (stereo not drawn) [Example 10, 2 -(4 -piperidino-3 -chloro-2 -pyridylmethylsulphinyl)-5 -methoxy-(1H)-benzimidazole], the IC50 in assay [2] stood at 2 µM. In addition, the ED50 in assay [3] worked out at 1.2 µmol/kg. Further, the “inhibition of potassium stimulated ATPase activity” value against H^+ -K^+ -ATPase is listed as “found to inhibit potassium stimulated ATPase activity”.
